Source: patent US20100099561A1, “HETEROBICYCLIC ALKYLTHIO-BRIDGED ISOXAZOLINES” (E.I. DU PONT DE NEMOURS AND COMPANY, priority 2008, published 2010)

Legend:
Assay type in all cases: in vivo
[1] = system: barnyardgrass (Echinochloa crus-galli); test: Test B flooded paddy test, barnyardgrass; details: Flood
Outline: (§1)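 Rice, umbrella sedge, ducksalad and barnyardgrass at 2-leaf stage; pots flooded to 3 cm, compounds applied into paddy water, depth held throughout. Greenhouse 13 to 15 days, then visual rating vs untreated controls on 0–100 scale (0 no effect, 100 complete control); dash means no test result.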

[2] = system: Italian ryegrass (Lolium multiflorum); test: Test B preemergence, Italian ryegrass; details: Preemergence, scale 0 to 100
Outline: (§2)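 Greenhouse preemergence test: loam/sand soil, compound in surfactant-containing non-phytotoxic solvent, evaluated visually after 13–15 days on a 0–100 control scale.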

[3] = system: barnyardgrass (Echinochloa crus-galli); test: Test A preemergence, barnyardgrass; details: 0 to 100 scale (0 no effect, 100 complete control)
Outline: (§3)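 Each compound, in a non-phytotoxic solvent mixture with surfactant, is applied to soil at planting and, concurrently, to young one- to two-leaf plants. After approximately ten greenhouse days, visual response is rated 0 (no effect) to 100 (complete control) against untreated controls.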

[4] = system: large crabgrass (Digitaria sanguinalis); test: Test A preemergence, large crabgrass; details: 0 to 100 scale (0 no effect, 100 complete control)
Outline: as §3

corn (Zea mays) = test: Test B preemergence, corn; details: scale 0 to 100
Outline: as §2

[5] = system: wheat (Triticum aestivum); test: Test A postemergence, wheat; details: 0 to 100 scale (0 no effect, 100 complete control)
Outline: as §3

[6] = system: pigweed (Amaranthus retroflexus); test: Test A preemergence, pigweed; details: 0 to 100 scale (0 no effect, 100 complete control)
Outline: as §3

[7] = system: wheat (Triticum aestivum); test: Test A preemergence, wheat; details: 0 to 100 scale (0 no effect, 100 complete control)
Outline: as §3

[8] = system: giant foxtail (Setaria faberii); test: Test B preemergence, giant foxtail; details: scale 0 to 100
Outline: as §2

[9] = system: barnyardgrass (Echinochloa crus-galli); test: Test A postemergence, barnyardgrass; details: 0 to 100 scale (0 no effect, 100 complete control)
Outline: as §3

[10] = system: Surinam grass (Brachiaria decumbens); test: Test B preemergence, Surinam grass; details: Preemergence, scale 0 to 100
Outline: as §2

soybean (Glycine max) = test: Test B preemergence, soybean; details: Preemergence, scale 0 to 100
Outline: as §2

[11] = system: nightshade (eastern black nightshade, Solanum ptycanthum); test: Test B preemergence, nightshade; details: scale 0 to 100
Outline: as §2

[12] = system: ducksalad (Heteranthera limosa); test: Test B flooded paddy test, ducksalad; details: Flood, scale 0 to 100
Outline: as §1

[13] = system: lambsquarters (Chenopodium album); test: Test B preemergence, lambsquarters; details: scale 0 to 100
Outline: as §2

[14] = system: velvetleaf (Abutilon theophrasti); test: Test A preemergence, velvetleaf; details: 0 to 100 scale (0 no effect, 100 complete control)
Outline: as §3

[15] = system: velvetleaf (Abutilon theophrasti); test: Test A postemergence, velvetleaf; details: 0 to 100 scale (0 no effect, 100 complete control)
Outline: as §3

[16] = system: johnsongrass (Sorghum halepense); test: Test B preemergence, johnsongrass; details: scale 0 to 100
Outline: as §2

[17] = system: morningglory (Ipomoea coccinea); test: Test B preemergence, morningglory; details: scale 0 to 100
Outline: as §2

[18] = system: umbrella sedge (Cyperus difformis); test: Test B flooded paddy test, umbrella sedge; details: Flood, scale 0 to 100
Outline: as §1

[19] = 250 g ai/ha, scale 0 to 100 (0 no effect, 100 complete control)

## CC1(C)CC(S(=O)(=O)Cc2c(C(F)(F)Cl)nc3n(c2=O)CCC3)=NO1 [Compound 18]
[1]; 31 g ai/ha, scale 0 to 100
  Plant response rating, Barnyardgrass: 0
[1]; 62 g ai/ha, scale 0 to 100
  Plant response rating, Barnyardgrass: 0
[1]; 125 g ai/ha, scale 0 to 100
  Plant response rating, Barnyardgrass: 0
[1]; [19]
  Plant response rating, Barnyardgrass: 0
[2]; 16 g ai/ha
  Plant response rating, Ryegrass, Italian: 0
[2]; 31 g ai/ha
  Plant response rating, Ryegrass, Italian: 0
[2]; 62 g ai/ha
  Plant response rating, Ryegrass, Italian: 35
[2]; 125 g ai/ha
  Plant response rating, Ryegrass, Italian: 40
[3]; 125 g ai/ha
  Plant response rating, Barnyardgrass: 70
[3]; 500 g ai/ha
  Plant response rating, Barnyardgrass: 100
[4]; 125 g ai/ha
  Plant response rating, Crabgrass, Large: 90
[4]; 500 g ai/ha
  Plant response rating, Crabgrass, Large: 100
Corn (Zea mays); 16 g ai/ha
  Plant response rating, Corn: 0
Corn (Zea mays); 31 g ai/ha
  Plant response rating, Corn: 0
Corn (Zea mays); 62 g ai/ha
  Plant response rating, Corn: 0
Corn (Zea mays); 125 g ai/ha
  Plant response rating, Corn: 0
[5]; 125 g ai/ha
  Plant response rating, Wheat: 0
[5]; 500 g ai/ha
  Plant response rating, Wheat: 60
[6]; 125 g ai/ha
  Plant response rating, Pigweed: 60
[6]; 500 g ai/ha
  Plant response rating, Pigweed: 100
[7]; 125 g ai/ha
  Plant response rating, Wheat: 0
[7]; 500 g ai/ha
  Plant response rating, Wheat: 30
[8]; 16 g ai/ha
  Plant response rating, Foxtail, Giant: 0
[8]; 31 g ai/ha
  Plant response rating, Foxtail, Giant: 80
[8]; 62 g ai/ha
  Plant response rating, Foxtail, Giant: 85
[8]; 125 g ai/ha
  Plant response rating, Foxtail, Giant: 98
[9]; 125 g ai/ha
  Plant response rating, Barnyardgrass: 80
[9]; 500 g ai/ha
  Plant response rating, Barnyardgrass: 80
[10]; 16 g ai/ha
  Plant response rating, Surinam Grass: 0
[10]; 31 g ai/ha
  Plant response rating, Surinam Grass: 40
[10]; 62 g ai/ha
  Plant response rating, Surinam Grass: 75
[10]; 125 g ai/ha
  Plant response rating, Surinam Grass: 85
Soybean (Glycine max); 16 g ai/ha
  Plant response rating, Soybean: 0
Soybean (Glycine max); 31 g ai/ha
  Plant response rating, Soybean: 0
Soybean (Glycine max); 62 g ai/ha
  Plant response rating, Soybean: 0
Soybean (Glycine max); 125 g ai/ha
  Plant response rating, Soybean: 0
[11]; 16 g ai/ha
  Plant response rating, Nightshade: 0
[11]; 31 g ai/ha
  Plant response rating, Nightshade: 0
[11]; 62 g ai/ha
  Plant response rating, Nightshade: 0
[11]; 125 g ai/ha
  Plant response rating, Nightshade: 95
[12]; 31 g ai/ha
  Plant response rating, Ducksalad: 0
[12]; 62 g ai/ha
  Plant response rating, Ducksalad: 0
[12]; 125 g ai/ha
  Plant response rating, Ducksalad: 0
[12]; 250 g ai/ha
  Plant response rating, Ducksalad: 0
[13]; 16 g ai/ha
  Plant response rating, Lambsquarters: 0
[13]; 31 g ai/ha
  Plant response rating, Lambsquarters: 0
[13]; 62 g ai/ha
  Plant response rating, Lambsquarters: 75
[13]; 125 g ai/ha
  Plant response rating, Lambsquarters: 85
[14]; 125 g ai/ha
  Plant response rating, Velvetleaf: 0
[14]; 500 g ai/ha
  Plant response rating, Velvetleaf: 60
[15]; 125 g ai/ha
  Plant response rating, Velvetleaf: 30
[15]; 500 g ai/ha
  Plant response rating, Velvetleaf: 60
[16]; 16 g ai/ha
  Plant response rating, Johnsongrass: 15
[16]; 31 g ai/ha
  Plant response rating, Johnsongrass: 20
[16]; 62 g ai/ha
  Plant response rating, Johnsongrass: 60
[16]; 125 g ai/ha
  Plant response rating, Johnsongrass: 85
[17]; 16 g ai/ha
  Plant response rating, Morningglory: 0
[17]; 31 g ai/ha
  Plant response rating, Morningglory: 0
[17]; 62 g ai/ha
  Plant response rating, Morningglory: 0
[17]; 125 g ai/ha
  Plant response rating, Morningglory: 45
[18]; 31 g ai/ha
  Plant response rating, Sedge, Umbrella: 0
[18]; 62 g ai/ha
  Plant response rating, Sedge, Umbrella: 0
[18]; 125 g ai/ha
  Plant response rating, Sedge, Umbrella: 0
[18]; 250 g ai/ha
  Plant response rating, Sedge, Umbrella: 0

## CC1(C)CC(S(=O)(=O)Cc2c(C(F)(F)C(F)(F)F)nc3n(c2=O)CCCC3)=NO1 [Compound 21]
[1]; 62 g ai/ha, scale 0 to 100
  Plant response rating, Barnyardgrass: 0
[1]; [19]
  Plant response rating, Barnyardgrass: 0
[2]; 16 g ai/ha
  Plant response rating, Ryegrass, Italian: 0
[2]; 31 g ai/ha
  Plant response rating, Ryegrass, Italian: 0
[2]; 62 g ai/ha
  Plant response rating, Ryegrass, Italian: 0
[2]; 125 g ai/ha
  Plant response rating, Ryegrass, Italian: 40
[3]; 125 g ai/ha
  Plant response rating, Barnyardgrass: 90
[3]; 500 g ai/ha
  Plant response rating, Barnyardgrass: 100
[4]; 125 g ai/ha
  Plant response rating, Crabgrass, Large: 90
[4]; 500 g ai/ha
  Plant response rating, Crabgrass, Large: 100
Corn (Zea mays); 16 g ai/ha
  Plant response rating, Corn: 0
Corn (Zea mays); 31 g ai/ha
  Plant response rating, Corn: 0
Corn (Zea mays); 62 g ai/ha
  Plant response rating, Corn: 0
Corn (Zea mays); 125 g ai/ha
  Plant response rating, Corn: 10
[5]; 125 g ai/ha
  Plant response rating, Wheat: 0
[5]; 500 g ai/ha
  Plant response rating, Wheat: 20
[6]; 125 g ai/ha
  Plant response rating, Pigweed: 0
[6]; 500 g ai/ha
  Plant response rating, Pigweed: 100
[7]; 125 g ai/ha
  Plant response rating, Wheat: 0
[7]; 500 g ai/ha
  Plant response rating, Wheat: 40
[8]; 16 g ai/ha
  Plant response rating, Foxtail, Giant: 0
[8]; 31 g ai/ha
  Plant response rating, Foxtail, Giant: 60
[8]; 62 g ai/ha
  Plant response rating, Foxtail, Giant: 80
[8]; 125 g ai/ha
  Plant response rating, Foxtail, Giant: 85
[9]; 125 g ai/ha
  Plant response rating, Barnyardgrass: 70
[9]; 500 g ai/ha
  Plant response rating, Barnyardgrass: 90
[10]; 16 g ai/ha
  Plant response rating, Surinam Grass: 50
[10]; 31 g ai/ha
  Plant response rating, Surinam Grass: 50
[10]; 62 g ai/ha
  Plant response rating, Surinam Grass: 50
[10]; 125 g ai/ha
  Plant response rating, Surinam Grass: 100
Soybean (Glycine max); 16 g ai/ha
  Plant response rating, Soybean: 0
Soybean (Glycine max); 31 g ai/ha
  Plant response rating, Soybean: 0
Soybean (Glycine max); 62 g ai/ha
  Plant response rating, Soybean: 0
Soybean (Glycine max); 125 g ai/ha
  Plant response rating, Soybean: 0
[11]; 16 g ai/ha
  Plant response rating, Nightshade: 50
[11]; 31 g ai/ha
  Plant response rating, Nightshade: 50
[11]; 62 g ai/ha
  Plant response rating, Nightshade: 75
[11]; 125 g ai/ha
  Plant response rating, Nightshade: 90
[12]; 62 g ai/ha
  Plant response rating, Ducksalad: 0
[12]; 250 g ai/ha
  Plant response rating, Ducksalad: 0
[13]; 16 g ai/ha
  Plant response rating, Lambsquarters: 0
[13]; 31 g ai/ha
  Plant response rating, Lambsquarters: 0
[13]; 62 g ai/ha
  Plant response rating, Lambsquarters: 0
[13]; 125 g ai/ha
  Plant response rating, Lambsquarters: 98
[14]; 125 g ai/ha
  Plant response rating, Velvetleaf: 0
[14]; 500 g ai/ha
  Plant response rating, Velvetleaf: 60
[15]; 125 g ai/ha
  Plant response rating, Velvetleaf: 0
[15]; 500 g ai/ha
  Plant response rating, Velvetleaf: 10
[16]; 16 g ai/ha
  Plant response rating, Johnsongrass: 0
[16]; 31 g ai/ha
  Plant response rating, Johnsongrass: 30
[16]; 62 g ai/ha
  Plant response rating, Johnsongrass: 60
[16]; 125 g ai/ha
  Plant response rating, Johnsongrass: 98
[17]; 16 g ai/ha
  Plant response rating, Morningglory: 0
[17]; 31 g ai/ha
  Plant response rating, Morningglory: 10
[17]; 62 g ai/ha
  Plant response rating, Morningglory: 80
[17]; 125 g ai/ha
  Plant response rating, Morningglory: 100
[18]; 62 g ai/ha
  Plant response rating, Sedge, Umbrella: 0
[18]; 250 g ai/ha
  Plant response rating, Sedge, Umbrella: 0
